From patent US20210206791
Where “and” joins values, the source holds several entries; their conditions need not be identical. Identical values can stand only once. Like-named read-outs stand apart in the source and are kept apart here.

Conditions: the molecule shown is the open-chain precursor, crosslinker bond, CH3CN/H2O 1:1, 0.1 mM, 25.0 °C

Substance “H-Ala-Cys-Tyr-Lys-Arg-Ser-Asp-Phe-Thr-Cys-Gly-Gly-Gly-Ser-NH2?” has a ring closure, yield after HPLC (bis-Pd aryl reagent 6b (2 equiv)/Tris pH 7.5) of 85%, a ring closure, yield after HPLC (bis-Pd aryl reagent 6c (2 equiv)/Tris pH 7.5) of 70% and a ring closure, yield after HPLC (bis-Pd aryl reagent 6e (2 equiv)/Tris pH 7.5) of 100%. For the same substance, the ring closure, yield after HPLC (bis-Pd aryl reagent 6d (2 equiv)/Tris pH 7.5) was 84% and the ring closure, yield after HPLC (bis-Pd aryl reagent (2 equiv, not named)/Tris pH 7.5) was 79% and 92% and 94%.
